Measured values: patent publication US4308256A, “Method of inducing analgesia” (American Home Products Corporation, priority 1980, dated 1981)

System: male Charles River rats
Experiment: D'Amour-Smith rat tail-flick procedure (radiant heat, 8 second cut-off), intraventricular injection
Format: in vivo
Experimental: Intraventricular cannulae, made of 27-gauge stainless steel tubing, are implanted in 300-400 g. male Charles River rats under pentobarbital anesthesia. After a recovery period of at least one week, the rats are restrained in a wire-mesh cylindrical chamber so that the tip of the tail can be positioned at the focal point of a radiant heat source. After an acclimatistation period of 5 minutes, the lamp is turned on and an electric clock activated. Movement of the tip of the tail exposes a photocell to the lamp, which turns off the thermal stimulus and stops the clock. If a rat fails to move its tail within 8 seconds, the heat is automatically turned off to prevent blistering. The intensity of the lamp is adjusted in each case to produce at least three baseline tail-flick latencies of 2.5-4.5 seconds. Tests are initially made every 2 minutes, then every 5 minutes and finally every 15 minutes.
Initially, using the above outlined procedure, the effects of intraventricularly administered leucine-enkephalin are tested in rats according to the above procedure.
The rat tail flick procedure is repeated, first by the simultaneous intraventricular injection of both leucine-enkephalin and bestatin and then by the initial injection of bestatin followed one hour later by the injection of leucine-enkephalin.
The above procedure is repeated again, however, the bestatin is administered first and then one hour later the leucine-enkephalin is administered.
The effects of bestatin alone are tested in rats according to the rat tail flick procedure.

For `CC(C)C[C@H](NC(=O)[C@@H](O)[C@H](N)Cc1ccccc1)C(=O)O` [bestatin, [(2S,3R)-3-amino-2-hydroxy-4-phenylbutanoyl]-L-leucine], the Tail-flick latency (200 μg bestatin alone into lateral ventricle, Rat 1, 2 min) was 4.92 s, the Tail-flick latency (200 μg bestatin alone into lateral ventricle, Rat 1, 4 min) was 7.36 s and the Tail-flick latency (200 μg bestatin into lateral ventricle, 200 μg leucine-enkephalin one hour later, 1 rat, 2 min after leucine-enkephalin) was 8.00 s. The Tail-flick latency (200 μg bestatin into lateral ventricle, 200 μg leucine-enkephalin one hour later, 1 rat, 4 min after leucine-enkephalin) was 8.00 s, the Tail-flick latency (200 μg bestatin into lateral ventricle, 200 μg leucine-enkephalin one hour later, 1 rat, 6 min after leucine-enkephalin) was 8.00 s and the Tail-flick latency (200 μg bestatin into lateral ventricle, 200 μg leucine-enkephalin one hour later, 1 rat, 8 min after leucine-enkephalin) was 8.00 s. The Tail-flick latency (200 μg bestatin into lateral ventricle, 200 μg leucine-enkephalin one hour later, 1 rat, 10 min after leucine-enkephalin) was 8.00 s, the Tail-flick latency (200 μg bestatin into lateral ventricle, 200 μg leucine-enkephalin one hour later, 1 rat, 12 min after leucine-enkephalin) was 8.00 s and the Tail-flick latency (200 μg bestatin into lateral ventricle, 200 μg leucine-enkephalin one hour later, 1 rat, 14 min after leucine-enkephalin) was 8.00 s. It also gave a Tail-flick latency (200 μg bestatin into lateral ventricle, 200 μg leucine-enkephalin one hour later, 1 rat, 19 min after leucine-enkephalin) of 8.00 s, a Tail-flick latency (200 μg bestatin into lateral ventricle, 200 μg leucine-enkephalin one hour later, 1 rat, 24 min after leucine-enkephalin) of 8.00 s and a Tail-flick latency (200 μg bestatin into lateral ventricle, 200 μg leucine-enkephalin one hour later, 1 rat, 29 min after leucine-enkephalin) of 8.00 s. The Tail-flick latency (200 μg bestatin into lateral ventricle, 200 μg leucine-enkephalin one hour later, 1 rat, 34 min after leucine-enkephalin) was 8.00 s, the Tail-flick latency (200 μg bestatin into lateral ventricle, 200 μg leucine-enkephalin one hour later, 1 rat, 53 min after leucine-enkephalin) was 8.00 s and the Tail-flick latency (200 μg bestatin into lateral ventricle, 200 μg leucine-enkephalin one hour later, 1 rat, 58 min after leucine-enkephalin) was 8.00 s. For the same molecule, the Tail-flick latency (200 μg bestatin into lateral ventricle, 200 μg leucine-enkephalin one hour later, 1 rat, 63 min after leucine-enkephalin) was 6.07 s, the Tail-flick latency (200 μg bestatin into lateral ventricle, 200 μg leucine-enkephalin one hour later, 1 rat, 68 min after leucine-enkephalin) was 2.62 s and the Tail-flick latency (200 μg leucine-enkephalin + 200 μg bestatin injected together into lateral ventricle, 1 rat, 2 min) was 4.21 s. For the same molecule, the Tail-flick latency (200 μg leucine-enkephalin + 200 μg bestatin injected together into lateral ventricle, 1 rat, 4 min) was 5.75 s, the Tail-flick latency (200 μg leucine-enkephalin + 200 μg bestatin injected together into lateral ventricle, 1 rat, 8 min) was 8.00 s and the Tail-flick latency (200 μg leucine-enkephalin + 200 μg bestatin injected together into lateral ventricle, 1 rat, 10 min) was 8.00 s. The Tail-flick latency (200 μg leucine-enkephalin + 200 μg bestatin injected together into lateral ventricle, 1 rat, 12 min) was 8.00 s, the Tail-flick latency (200 μg leucine-enkephalin + 200 μg bestatin injected together into lateral ventricle, 1 rat, 14 min) was 8.00 s and the Tail-flick latency (200 μg leucine-enkephalin + 200 μg bestatin injected together into lateral ventricle, 1 rat, 19 min) was 8.00 s. It also gave a Tail-flick latency (200 μg leucine-enkephalin + 200 μg bestatin injected together into lateral ventricle, 1 rat, 24 min) of 8.00 s, a Tail-flick latency (200 μg leucine-enkephalin + 200 μg bestatin injected together into lateral ventricle, 1 rat, 29 min) of 8.00 s and a Tail-flick latency (200 μg leucine-enkephalin + 200 μg bestatin injected together into lateral ventricle, 1 rat, 34 min) of 8.00 s. It also gave a Tail-flick latency (200 μg leucine-enkephalin + 200 μg bestatin injected together into lateral ventricle, 1 rat, 39 min) of 8.00 s, a Tail-flick latency (200 μg leucine-enkephalin + 200 μg bestatin injected together into lateral ventricle, 1 rat, 53 min) of 8.00 s and a Tail-flick latency (200 μg leucine-enkephalin + 200 μg bestatin injected together into lateral ventricle, 1 rat, 58 min) of 8.00 s. For the same molecule, the Tail-flick latency (200 μg leucine-enkephalin + 200 μg bestatin injected together into lateral ventricle, 1 rat, 63 min) was 4.65 s, the Tail-flick latency (200 μg leucine-enkephalin + 200 μg bestatin injected together into lateral ventricle, 1 rat, 68 min) was 8.00 s and the Tail-flick latency (200 μg leucine-enkephalin + 200 μg bestatin injected together into lateral ventricle, 1 rat, 73 min) was 4.95 s. For the same molecule, the Tail-flick latency (200 μg leucine-enkephalin + 200 μg bestatin injected together into lateral ventricle, 1 rat, 78 min) was 2.10 s, the “Analgesia induced by bestatin alone” value (200 μg level, lateral ventricle, rat) was “does not appear to induce any clearcut analgesia” and the Tail-flick latency (400 μg bestatin alone into lateral ventricle, Rat 1, 210 min) was 8.00 s. The Tail-flick latency (400 μg bestatin alone into lateral ventricle, Rat 1, 225 min) was 8.00 s, the Tail-flick latency (400 μg bestatin alone into lateral ventricle, Rat 1, 240 min) was 8.00 s and the Tail-flick latency (400 μg bestatin alone into lateral ventricle, Rat 1, 255 min) was 4.71 s. For the same molecule, the Tail-flick latency (400 μg bestatin alone into lateral ventricle, Rat 2, 2 min) was 2.16 s, the Tail-flick latency (400 μg bestatin alone into lateral ventricle, Rat 2, 4 min) was 5.40 s and the Tail-flick latency (400 μg bestatin alone into lateral ventricle, Rat 2, 6 min) was 4.62 s. It also gave a Tail-flick latency (400 μg bestatin alone into lateral ventricle, Rat 2, 8 min) of 6.51 s, a Tail-flick latency (400 μg bestatin alone into lateral ventricle, Rat 2, 10 min) of 8.00 s and a Tail-flick latency (400 μg bestatin alone into lateral ventricle, Rat 2, 12 min) of 8.00 s. It also gave a Tail-flick latency (400 μg bestatin alone into lateral ventricle, Rat 2, 14 min) of 8.00 s, a Tail-flick latency (400 μg bestatin alone into lateral ventricle, Rat 2, 16 min) of 8.00 s and a Tail-flick latency (400 μg bestatin alone into lateral ventricle, Rat 2, 18 min) of 8.00 s. It also gave a Tail-flick latency (400 μg bestatin alone into lateral ventricle, Rat 2, 20 min) of 8.00 s, a Tail-flick latency (400 μg bestatin alone into lateral ventricle, Rat 2, 22 min) of 8.00 s and a Tail-flick latency (400 μg bestatin alone into lateral ventricle, Rat 2, 24 min) of 8.00 s. For the same molecule, the Tail-flick latency (400 μg bestatin alone into lateral ventricle, Rat 2, 26 min) was 8.00 s and the Tail-flick latency (400 μg bestatin alone into lateral ventricle, Rat 2, 28 min) was 8.00 s.
